The text below walks through data of US12616687B2, “Treatment of viral infection, disease or disorder using a selective sir agonist” (Prilenia Neurotherapeutics Ltd., priority 2020, dated 2026).

Data set [1] has as its system YAC128 HD striatal neurons. In words: mitochondrial ROS (H2O2, MitoPY1) in YAC128 HD striatal neurons. Type of data set: cell-based, mouse. The note with it: Ant A 2 μM. Here is the method: YAC128 is a mouse model of Huntington's Disease (HD), Striatal neurons from wt or YAC128 were treated or not with 1 μM pridopidine and incubated with MitoPY1 fluorescence probe. The mitochondrial respiration inhibitor Antimycin A (Ant A, 2 μM) was used to induce release of Mitochondrial H2O2 and oxidative stress. Mitochondrial H2O2 was recorded in spinning disk confocal before and after administration of Ant A (n=4, considering ˜20 cells/condition).
Striatal neurons from YAC128 HD mice were treated with 1 μM pridopidine prior to induction of ROS production by the mitochondrial respiration inhibitor antimycin A (Ant A).

For data set [2] the following is noted: at the concentration showing anti-viral activity; cited from earlier work.
Data set [3] concerns lymphoblasts from HD patients. As to the kind of experiment: mitochondrial membrane potential (TMRE) in control and S1R-KD HD lymphoblasts. Type of data set: cell-based, human. Here is the method: Cells were treated with pridopidine 5 μM, then challenged with 0.1 mM H2O2.
For a further data set, the target named is S2R (Homo sapiens, UniProt Q5BJF2). The note with it: cited from earlier work.
A further data set relates to SARS-CoV-2. The note with it: viral titer assay; cited from earlier work.
Data set [4] deals with T1, S1R (Homo sapiens, UniProt Q99720). The note with it: cited from earlier work.
For data set [5], the system named is interferon-stimulated genes (ISGs).
A further data set concerns ATF6. The note with it: myc-Htt96Q cells. Here is the method:
Cells expressing myc-Htt96Q (mutant Htt) were treated with pridopidine 0.03 and 3 μM. Immunoblots were reacted with anti-ATF6 quantified and normalized with anti-tubulin as loading controls.

The next data set concerns XBP1s. The note with it: myc-Htt96Q cells, 3 μM (p<0.01).
The subject of another data set is eIF2α-phosphorylation. As to the kind of experiment: eIF2α-phosphorylation, ER stress induced by thapsigargin. Type of data set: cell-based. The note with it: 2 μg/ml thapsigargin. Here is the method: HEK293 cells transfected with Htt20Q-mCherry (wt HTT) were treated with 2 μg/ml thapsigargin to induce ER stress.
Data set [6] relates to Striatal WT and YAC128 (HD) neurons. The note with it: 24 h; for mitochondrial membrane potential (MMP) in HD (YAC128) neurons: 0.1 and 1 μM. The text has this:
The role of S1R in regulating mitochondrial membrane potential (MMP) was studied in striatal neurons from wild-type (WT) control and YAC128 HD mice.

A further data set has as its system CHOP. The procedure:
(§1) Cells expressing myc-Htt96Q (mutant Htt) or myc-Htt20Q (wt Htt) were treated with pridopidine 3 uM. Immunoblots were reacted with anti-ATF4 (FIG. 7A), anti-CHOP (FIG. 7B) and anti-GADD34 (FIG. 7C), quantified and normalized with anti-actin or anti-tubulin as loading controls.

The test system of the next data set is GADD34. The procedure: as §1
The next data set relates to ATF4. Here is the method:
as §1

Data set [7] deals with T1, S1R.
Where [8] appears, read: pridopidine 5 μM, 24 h, 0.1 mM H2O2.
The mark [9] stands for this setting: HEK293, Htt96Q-induced ER stress.

“And” between values parts separate entries of the source, which are not always exact repeats. Identical values can stand only once. “Also recorded” adds a separate entry of the source. Like-named read-outs stand apart in the source and are kept apart here.

T1 sequence (Q99720 whole entry): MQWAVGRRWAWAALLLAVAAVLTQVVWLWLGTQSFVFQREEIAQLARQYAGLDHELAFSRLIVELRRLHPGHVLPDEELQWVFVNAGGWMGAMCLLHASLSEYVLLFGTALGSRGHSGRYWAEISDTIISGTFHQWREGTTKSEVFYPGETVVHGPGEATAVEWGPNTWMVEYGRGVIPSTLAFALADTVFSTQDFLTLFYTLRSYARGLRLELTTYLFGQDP
Chain of S2R (Q5BJF2 whole entry): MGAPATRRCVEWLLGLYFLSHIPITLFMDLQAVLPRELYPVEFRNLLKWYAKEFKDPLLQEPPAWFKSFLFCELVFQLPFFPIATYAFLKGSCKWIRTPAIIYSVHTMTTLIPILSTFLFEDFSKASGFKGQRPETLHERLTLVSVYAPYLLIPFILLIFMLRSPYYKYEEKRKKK

For `CCCCCC[C@H]1C(=O)O[C@H](C)[C@H](NC(=O)c2cccc(NC=O)c2O)C(=O)O[C@@H](C)[C@@H]1OC(=O)CC(C)C` [Ant A, Antimycin A, reference compound], the “increase of mitochondrial H2O2 / ROS production” value in data set [1] (untreated YAC128 neurons) was around 2 fold.
`CN1CCC[C@@H]1CCO[C@](C)(c1ccccc1)c1ccc(Cl)cc1` [Clemastine]: in data set [2], the “reduction in cell viability / cell death” value is given as around 40%.
For the compound `OO` [Compound H2O2, H2O2, reference compound], the “reduction of MMP in S1R+/+ cells” value in data set [3] (0.1 mM H2O2, HD lymphoblasts) stood at 25%. In addition, in data set [3] (0.1 mM H2O2, HD lymphoblasts, S1R knocked down ~83%), the “reduction of MMP in S1R KD cells” value stood at 75%.
Take `O=C(CCCN1CCC(O)(c2ccc(Cl)cc2)CC1)c1ccc(F)cc1` [Haloperidol]: the “reduction in cell viability / cell death” value in data set [2] was around 30%.
A word on the Ki: it is a dissociation constant, usually derived from enzyme kinetics or from competition with a known ligand. As for `CCN(CCO)CCCC(C)Nc1ccnc2cc(Cl)ccc12` (stereo not drawn) [hydroxychloroquine], the Ki was 800 nM on S2R and 200 nM on S1R [4]. Further, the “concentration at which anti-viral activity was demonstrated” value in the data set on SARS-CoV-2 was around 2 µM. Besides, in [2], the “reduction in cell viability / cell death” value is around 30%.
Take `CCCN1CCC(c2cccc(S(C)(=O)=O)c2)CC1` [pridopidine, 4-[3-(methylsulfonyl)phenyl]-1-propyl-piperidine]: the “reduction of expression of ISGs (IFIT1, EIF2AK2, IRF7 indexed together)” value in [5] is reported as 30-50%. For the same compound, the “reduction of ATF6” value was around 10% with ATF6 (0.03 μM); 35% and ~30% in the data set on ATF6 (3 μM). Further, the “mitochondrial ROS (H2O2) production after Ant A” value in data set [1] (YAC128 striatal neurons, pridopidine 1 μM) is “robust and significant reduction of ROS production by mitochondria back to normal levels; also recorded: inhibits H2O2 release and oxidative stress”. Further, the “reduction in XBP1s mRNA levels” value in the data set with XBP1s was 25%. In addition, in data set [3] (setting [8]), the “MMP after H2O2 challenge in S1R KD cells” value was “abolished and not”. Further, in data set [3] (setting [8]), the “MMP after H2O2 challenge in S1R+/+ cells” value was “completely restored”. In addition, in the data set with eIF2α-phosphorylation (HEK293, wt HTT, pridopidine 3 μM, 8 hours), the “eIF2α-p (ratio of eIF2α-P/eIF2α)” value is given as “caused a reduction; also recorded: reduces p-eIF2α levels”. Besides, the “mitochondrial membrane potential (MMP) in WT neurons” value in data set [6] (0.1 μM) is “trend towards increasing MMP”; in data set [6] (1 μM) it was “significant increase”. Further, the “mitochondrial membrane potential (MMP) in HD (YAC128) neurons” value in data set [6] is listed as “significant increase”; in data set [6] (listed as Pridopidine), “significantly restores the impaired MMP”. Moreover, the “mitochondrial membrane potential (MMP) in wt neurons” value in data set [6] (concentration not stated (FIG. 11 legend)) is “enhances MMP”. The “CHOP protein level after treatment” value in the data set with CHOP (setting [9]) is on record as “normal wt levels”. Also, the “reduction of CHOP levels” value with CHOP (myc-Htt96Q cells, 3 μM) is reported as around 2 fold. Also, the “GADD-34 protein level after treatment” value in the data set with GADD34 (setting [9]) was “normal wt levels”. Besides, the “reduction of GADD-34 levels” value with GADD34 (myc-Htt96Q cells, 3 μM (p<0.01)) was around 2.5 fold. In the data set on ATF4 (setting [9]), the “ATF4 protein level after treatment” value is “normal wt levels”. In addition, in the data set on ATF4 (myc-Htt96Q cells, 3 μM (p<0.05)), the “reduction of ATF4 levels” value was around 4.5 fold. On S1R [7], the “fold higher affinity for the S1R vs the S2R” value came to 95 fold.
As for `C/C=C(/C)C(=O)O[C@H]1C(C)=C2[C@H]([C@@H]1OC(=O)CCCCCCC)[C@@](C)(OC(C)=O)C[C@H](OC(=O)CCC)[C@@]1(O)[C@H]2OC(=O)[C@@]1(C)O` [thapsigargin, reference compound], the “increase in phosphorylated eIF2α (eIF2α-p)” value in the data set with eIF2α-phosphorylation (HEK293, myc-Htt20Q) is on record as 70%.
